Measurements: patent publication US5955616A, “Pyrrolidine derivatives having phospholipase A2 inhibitory activity” (Shionogi & Co., Ltd., priority 1995, dated 1999)

Key:
cPLA2 = molecular target: T1, cPLA2 (Homo sapiens, UniProt P47712); test: cPLA2 Inhibitory activity (release of radiolabelled fatty acid from liposomes); format: biochemical; conditions: 50 mM HEPES pH 7.4, 1 mM CaCl2, 2.5 μM radio-labeled phosphatidylcholine, 15 min at 37° C; read-out: cPLA2 Inhibition Activity IC50
T1 sequence (P47712 1-749): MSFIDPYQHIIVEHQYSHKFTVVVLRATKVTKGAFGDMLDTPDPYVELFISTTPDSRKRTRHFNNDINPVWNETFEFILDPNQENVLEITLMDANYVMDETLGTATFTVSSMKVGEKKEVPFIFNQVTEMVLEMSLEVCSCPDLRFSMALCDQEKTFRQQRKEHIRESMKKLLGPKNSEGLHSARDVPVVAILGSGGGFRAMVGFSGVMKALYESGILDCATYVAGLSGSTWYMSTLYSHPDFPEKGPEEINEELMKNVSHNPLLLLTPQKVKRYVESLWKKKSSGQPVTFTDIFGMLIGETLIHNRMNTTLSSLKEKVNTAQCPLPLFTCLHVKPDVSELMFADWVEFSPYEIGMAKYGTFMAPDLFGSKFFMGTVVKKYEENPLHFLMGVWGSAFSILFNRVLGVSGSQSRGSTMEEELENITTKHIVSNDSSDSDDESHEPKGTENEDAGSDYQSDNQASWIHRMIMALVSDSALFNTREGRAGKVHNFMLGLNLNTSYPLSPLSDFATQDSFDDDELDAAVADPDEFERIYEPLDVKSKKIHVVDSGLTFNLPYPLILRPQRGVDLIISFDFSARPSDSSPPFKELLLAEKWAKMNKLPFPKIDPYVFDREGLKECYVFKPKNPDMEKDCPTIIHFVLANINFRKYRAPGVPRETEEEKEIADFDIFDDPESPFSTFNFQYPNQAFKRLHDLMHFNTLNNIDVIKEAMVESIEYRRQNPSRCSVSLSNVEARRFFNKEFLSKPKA
Protocol: Experiment 1 cPLA2 Inhibitory activity
The compounds of the present invention was tested for the cPLA2 inhibitory activity by a method known in a literature (R. M. Kramer, E. F. Roberts, J. Manetta and J. E. Putnam, J. Biol. Chem., 268(8), 5268-5272 ([…])), as outlined below.
As a substrate, liposomes which contain 1-palmitoyl-2-[^14 C]-arachidonoyl-sn-glycero-3-phosphocholine and sn-1,2-dioleoylglycerol at the ratio of 2:1 and have treated ultrasonically were used. The substrate was added to a 50 mM HEPES buffer (pH 7.4) (200 μl) containing 1 mM CaCl2, 2 mM dithiothreitol, 150 mM NaCl, 0.1 mg/ml BSA so as to make the concentration of radio-labeled phosphatidylcholine 2.5 μM. To the solution was added a compound of the present invention in DMSO (10 μl) to obtain reaction solutions each containing the test compound at 250 μM, 50 μM, 10 μm, 2 μM, and 0.4 μM. The reaction was allowed to start by adding an enzyme (cPLA2) (4 ng) and continued for 15 min at 37° C.
The amount of fatty acids released by the reaction was measured on a liquid scintillation counter. Control was obtained by conducting the experiment in the same manner except that a compound of the present invention was not added. The inhibitory activity was expressed as percent (%) to the control value, which was used for the calculation of the concentration required for 50% inhibition (IC50, μM).

[1] = system: Prostaglandin E2 production in human fibroblasts; test: Inhibition of Production of Prostaglandin E2 in Human Fibroblasts (IL-1 stimulated); format: cell-based; conditions: Fibroblast, stimulation with IL-1, read-out: Inhibitory activity Against the Production of Prostaglandin E2 in Human Fibroblasts IC50
Protocol: Experiment 2 Inhibition of Production of Prostaglandin E2 in Human Fibroblasts
From this viewpoint, the compounds of the present invention were tested for the effect on the production of prostaglandin E2 by human fibroblasts under the stimulation with IL-1 according to the method of J. M. Dayer et al (CACHECTIN/TUMOR NECROSIS FACTOR STIMULATES COLLAGENASE AND PROSTAGLANDIN E2 PRODUCTION BY HUMAN SYNOVIAL CELLS AND DERMAL FIBROBLASTS; J. M. Dayer, B. Beutlerm and A. Cerami, J. Exp. Med., 162,2163-2168, 1985).

| IC50 (cPLA2) | SMILES | IC50 [1] |
| --- | --- | --- |
| 3.4 µM | O=C1NC(=S)S/C1=C\c1ccc(NC(=O)[C@@H]2C[C@H](SCc3ccccc3)CN2S(=O)(=O)c2c(Cl)cccc2Cl)cc1 [Compound A-41] | 14 µM |
| 16 µM | CCCCNC(=O)N1C[C@@H](SCc2ccccc2)C[C@H]1C(=O)Nc1ccc(C=C2SC(=S)NC2=O)cc1 [Compound A-30] | 0.51 µM |
| 9.7 µM | O=C1NC(=O)C(=Cc2ccc(S(=O)(=O)NC[C@@H]3C[C@H](SCc4ccccc4)CN3C(=O)c3ccccc3)cc2)S1 [Compound B-7] | 3.6 µM |
| 6 µM | CC(C)(C)OC(=O)N1C[C@@H](SCc2ccccc2)C[C@H]1C(=O)Nc1ccc(C=C2SC(=S)NC2=O)cc1 [Compound A-17] | 3.2 µM |
| 3.6 µM | O=C1NC(=O)C(=Cc2ccc(NC(=O)[C@@H]3C[C@H](SCc4ccc5ccccc5c4)CN3C(=O)c3ccccc3)cc2)S1 [Compound A-5] | 7 µM |
| 3.4 µM | O=C1NC(=S)S/C1=C\c1ccc(NC(=O)[C@@H]2C[C@H](SCc3ccccc3)CN2S(=O)(=O)Cc2ccc(Br)cc2)cc1 [Compound A-54] | 1.1 µM |
| 5.6 µM | CN(C)c1cccc2c(S(=O)(=O)N3C[C@@H](SCc4ccccc4)C[C@H]3C(=O)Nc3ccc(/C=C4\SC(=S)NC4=O)cc3)cccc12 [Compound A-52] | 2.9 µM |
| 9.2 µM | O=C1NC(=S)SC1=Cc1ccc(NC(=O)[C@@H]2C[C@H](SCc3ccccc3)CN2C(=O)c2ccncc2)cc1 [Compound A-24] | 4.9 µM |
| 4.7 µM | O=C1NC(=S)S/C1=C\c1ccc(NC(=O)[C@@H]2C[C@H](SCc3ccccc3)CN2S(=O)(=O)c2ccc(N=Nc3ccccc3)cc2)cc1 [Compound A-57] | – |
| 20 µM | O=CN1C[C@@H](SCc2ccccc2)C[C@H]1C(=O)Nc1ccc(C=C2SC(=S)NC2=O)cc1 [Compound A-13] | – |
| 16 µM | O=C1NC(=S)SC1=Cc1ccc(NC(=O)[C@@H]2C[C@H](SCc3ccccc3)CN2)cc1 [Compound A-18] | – |
| 21 µM | CS[C@H]1C[C@@H](C(=O)Nc2ccc(C=C3SC(=S)NC3=O)cc2)N(C(=O)CCc2ccccc2)C1 [Compound A-22] | – |
| 7.2 µM | O=C1NC(=S)SC1=Cc1ccc(NC(=O)[C@@H]2C[C@H](SCc3ccccc3)CN2C(=O)c2ccccc2)cc1 [Compound A-2] | – |

Second part, the molecule before the results:

| SMILES | IC50 (cPLA2) | IC50 [1] |
| --- | --- | --- |
| COC(=O)c1cc(C=C2SC(=O)NC2=O)cc(NC(=O)C2CC(OC(c3ccccc3)c3ccccc3)CN2C(=O)c2ccccc2)c1 (stereo not drawn) [Compound C-4] | 3.2 µM | 2 µM |
| COc1c(C(C)(C)C)cc(CS[C@H]2C[C@@H](C(=O)Nc3ccc(C=C4SC(=O)NC4=O)cc3)N(C(=O)c3ccccc3)C2)cc1C(C)(C)C [Compound A-4] | 1.6 µM | 4.9 µM |
| COc1ccc(COC(=O)N2C[C@@H](SCc3cc(C(C)(C)C)c(OC)c(C(C)(C)C)c3)C[C@H]2CNC(=O)c2ccc(/C=C3\SC(=O)NC3=O)cc2)cc1 [Compound B-3] | 1.2 µM | 2.1 µM |
| COc1cc(CS[C@H]2C[C@@H](C(=O)Nc3ccc(C=C4SC(=O)NC4=O)cc3)N(C(=O)c3ccccc3)C2)cc(OC)c1OC [Compound A-9] | 5.1 µM | 3 µM |
| CC(=O)Oc1ccc(O)cc1CCCCCCC(=O)N1C[C@@H](OC(c2ccccc2)c2ccccc2)C[C@H]1CNC(=O)c1ccc(/C=C2\SC(=O)NC2=O)cc1 [Compound H-16] | 4.3 µM | 1.9 µM |
| O=C1NC(=O)C(=C(CO)c2ccc(NC(=O)[C@@H]3C[C@H](SCc4ccccc4)CN3C(=O)Cc3ccc(Br)cc3)cc2)S1 [Compound D-3] | – | 7.1 µM |
| CS[C@H]1C[C@@H](C(=O)Nc2ccc(/C=C3\SC(=O)NC3=O)cc2)N(S(=O)(=O)c2ccc(-c3ccccc3)cc2)C1 [Compound A-44] | 7.4 µM | 1.5 µM |
| O=C1NC(=S)S/C1=C\c1ccc(NC(=O)[C@@H]2C[C@H](SCc3ccccc3)CN2S(=O)(=O)Cc2c(Cl)cccc2Cl)cc1 [Compound A-53] | – | 0.83 µM |
| O=C1NC(=O)C(=Cc2ccc(NC(=O)[C@@H]3C[C@H](SCc4ccc(C(F)(F)F)cc4C(F)(F)F)CN3C(=O)c3ccccc3)cc2)S1 [Compound A-8] | 4.8 µM | 2.5 µM |
| O=C1NC(=O)/C(=C/c2ccc(NC(=O)[C@@H]3C[C@H](SCc4ccccc4)CN3S(=O)(=O)c3ccc(-c4ccccc4)cc3)cc2)S1 [Compound A-42] | 14 µM | 3.8 µM |
| COC(=O)c1ccc(CS[C@H]2C[C@@H](CNC(=O)c3ccc(/C=C4\SC(=S)NC4=O)cc3)N(C(=O)c3ccccc3)C2)cc1 [Compound B-5] | 2.2 µM | 2 µM |
| CS[C@H]1C[C@@H](C(=O)Nc2ccc(/C=C3\SC(=S)NC3=O)cc2)N(S(=O)(=O)c2ccc(-c3ccccc3)cc2)C1 [Compound A-45] | 4.8 µM | 1.5 µM |
| O=C1NC(=O)/C(=C/c2ccc(C(=O)NC[C@@H]3C[C@H](SC(c4ccccc4)(c4ccccc4)c4ccccc4)CN3C(=O)CCc3ccccc3)cc2)S1 [Compound B-1] | 0.82 µM | 7.5 µM |
| CS[C@H]1C[C@@H](C(=O)Nc2ccc(/C=C3\SC(=O)NC3=O)cc2)N(S(=O)(=O)c2c(Cl)cccc2Cl)C1 [Compound A-40] | 15 µM | 7.7 µM |
| CC(C)S[C@H]1C[C@@H](C(=O)Nc2ccc(C=C3SC(=S)NC3=O)cc2)N(C(=O)OC(C)(C)C)C1 [Compound A-16] | 22 µM | 2.9 µM |
| NC(=O)c1ccc(CS[C@H]2C[C@@H](CNC(=O)c3ccc(/C=C4\SC(=S)NC4=O)cc3)N(C(=O)c3ccccc3)C2)cc1 [Compound B-6] | 31 µM | 4.7 µM |
| O=C1NC(=O)/C(=C/c2ccc(C(=O)NC[C@@H]3C[C@H](OCc4ccc(F)cc4F)CN3C(=O)c3ccc(Cn4sccc4=O)cc3)cc2)S1 [Compound H-8] | 3.2 µM | 9.9 µM |
| O=C1NC(=O)/C(=C/c2ccc(C(=O)NC[C@@H]3C[C@H](OCc4ccc(-c5ccccc5)cc4)CN3C(=O)c3ccc(Cn4sccc4=O)cc3)cc2)S1 [Compound H-9] | 2 µM | 9.6 µM |
| O=C1NC(=O)C(=Cc2cc(CCCO)cc(NC(=O)C3CC(OC(c4ccccc4)c4ccccc4)CN3C(=O)c3ccccc3)c2)S1 (stereo not drawn) [Compound C-6] | 13 µM | 2.3 µM |
| O=C1NC(=O)/C(=C/c2ccc(S(=O)(=O)NC[C@@H]3CC(OCc4ccc(F)cc4F)CN3S(=O)(=O)Cc3ccc(Br)cc3)cc2)S1 (stereo partly drawn) [Compound H-19] | 8.6 µM | – |
| O=C1NC(=O)/C(=C/c2ccc(C(=O)NC[C@@H]3C[C@H](OC(c4ccccc4)c4ccccc4)CN3C(=O)c3ccc(OCN4C(=O)c5ccccc5S4(=O)=O)cc3)cc2)S1 [Compound H-13] | 4.4 µM | – |
| O=C1NC(=O)/C(=C/c2ccc(NC(=O)[C@H]3C[C@H](SCc4ccccc4)CN3S(=O)(=O)c3ccc(-c4ccccc4)cc3)cc2)S1 [Compound M-2] | 15 µM | – |
| CC(C)=CCC/C(C)=C/COC1C[C@@H](C(=O)Nc2ccc(/C=C3\SC(=O)NC3=O)cc2)N(C(=O)c2ccccc2)C1 (stereo partly drawn) [Compound G-1] | 9 µM | – |
| O=C1NC(=O)C(=Cc2ccc(COC3CC(CNC(=O)c4ccc(-c5ccccc5)cc4)N(C(=O)c4ccccc4)C3)cc2)S1 (stereo not drawn) [Compound N-1] | 6.6 µM | – |
| O=C1NC(=S)O/C1=C\c1ccc(NC(=O)[C@@H]2C[C@H](SC(c3ccccc3)(c3ccccc3)c3ccccc3)CN2S(=O)(=O)c2ccc(-c3ccccc3)cc2)cc1 [Compound A-63] | 3.2 µM | – |
